This series deals with human primary monocytes. As to the kind of experiment: IFN-α production in human primary monocytes transfected with RNA (ELISA). It counts as cell-based. The following applies: for IFN-α induction (*100%) mean: monocytes from three donors, 36 hours after transfection, normalized to the mean induction level of all oligonucleotides (=100%); for IFN-α-inducing activity conferred by the 5′ 4-nucleotide sequence: adenosine-initiated in vitro transcribed RNA oligonucleotides, FIG. 13; for IFN-α production in monocytes: 200 ng RNA transfected, 24 hours, ELISA.

{ppp} = triphosphate group

“acuaggggac acacacacac acacacacac (ACUAGGGGACACACACACACACACACACAC; RNA, 5' {ppp}, backbone not given here) [SEQ ID No. 117]”: the “IFN-α induction (*100%) mean” value is 0.62 *100%.

Consider “aggaggggac acacacacac acacacacac (AGGAGGGGACACACACACACACACACACAC; RNA, 5' {ppp}, backbone not given here) [SEQ ID No. 161]”, for which the “IFN-α-inducing activity conferred by the 5′ 4-nucleotide sequence” value (“IFN-α-inducing activity conferred” for short) is “highest IFN-α-inducing activity” and the “IFN-α induction (*100%) mean” value is 1.27 *100%.

Take “5′-pppAGGGAAGCGGGCAUGCGGCCAGCCAUAGCCGAUCA-3′ [AΦ6.5-35 n]”: the “IFN-α production in monocytes” value was “clear superiority”.

On to “aguaggggac acacacacac acacacacac (AGUAGGGGACACACACACACACACACACAC; RNA, 5' {ppp}, backbone not given here) [SEQ ID No. 158]”, for which the “IFN-α-inducing activity conferred” value is reported as “highest IFN-α-inducing activity” and the “IFN-α induction (*100%) mean” value is 1.22 *100%.

For “agagggggac acacacacac acacacacac (AGAGGGGGACACACACACACACACACACAC; RNA, 5' {ppp}, backbone not given here) [SEQ ID No. 114]”, the “IFN-α induction (*100%) mean” value is recorded as 0.50 *100%.

Turning to “aaauggggac acacacacac acacacacac (AAAUGGGGACACACACACACACACACACAC; RNA, 5' {ppp}, backbone not given here) [SEQ ID No. 146]”, the “IFN-α-inducing activity conferred” value is “highest IFN-α-inducing activity” and the “IFN-α induction (*100%) mean” value is 1.04 *100%.

With “acauggggac acacacacac acacacacac (ACAUGGGGACACACACACACACACACACAC; RNA, 5' {ppp}, backbone not given here) [SEQ ID No. 148]”, the “IFN-α-inducing activity conferred” value was “highest IFN-α-inducing activity” and the “IFN-α induction (*100%) mean” value is 1.11 *100%.

Turning to “augcggggac acacacacac acacacacac (AUGCGGGGACACACACACACACACACACAC; RNA, 5' {ppp}, backbone not given here) [SEQ ID No. 159]”, the “IFN-α-inducing activity conferred” value is listed as “highest IFN-α-inducing activity” and the “IFN-α induction (*100%) mean” value is recorded as 1.23 *100%.

On to “aaacggggac acacacacac acacacacac (AAACGGGGACACACACACACACACACACAC; RNA, 5' {ppp}, backbone not given here) [SEQ ID No. 154]”, for which the “IFN-α-inducing activity conferred” value is recorded as “highest IFN-α-inducing activity” and the “IFN-α induction (*100%) mean” value is recorded as 1.15 *100%.

On to “aagaggggac acacacacac acacacacac (AAGAGGGGACACACACACACACACACACAC; RNA, 5' {ppp}, backbone not given here) [SEQ ID No. 134]”, for which the “IFN-α induction (*100%) mean” value is 0.95 *100%.

As for “5′-pppAACCUGUCCUUCAAUUACC-3′ [RNA9.2s-5A]”, the “IFN-α production in monocytes” value is listed as “paralleled RNA9.2-0A”.

As to “5′-PPPGGGAGACAGGAAAAAAAAAAAAAAAAAAAAA-3′ [tri-poly A]”, the “IFN-α production in monocytes” value was “equally potent”.

With “aaagggggac acacacacac acacacacac (AAAGGGGGACACACACACACACACACACAC; RNA, 5' {ppp}, backbone not given here) [SEQ ID No. 173]”, the “IFN-α-inducing activity conferred” value is on record as “highest IFN-α-inducing activity” and the “IFN-α induction (*100%) mean” value is 1.40 *100%.

As for “5′-pppGGGGCUGACCCUGAAGUUCAUCUUCCC-3′ [27-mer]”, the IFN-α induction level (24 hours after stimulation, five donors, mean±SEM) worked out at 5876 ± 1785 pg/mL.

On to “acacggggac acacacacac acacacacac (ACACGGGGACACACACACACACACACACAC; RNA, 5' {ppp}, backbone not given here) [SEQ ID No. 135]”, for which the “IFN-α induction (*100%) mean” value was 0.95 *100%.

On to “auaaggggac acacacacac acacacacac (AUAAGGGGACACACACACACACACACACAC; RNA, 5' {ppp}, backbone not given here) [SEQ ID No. 127]”, for which the “IFN-α induction (*100%) mean” value is 0.82 *100%.

As to “aucgggggac acacacacac acacacacac (AUCGGGGGACACACACACACACACACACAC; RNA, 5' {ppp}, backbone not given here) [SEQ ID No. 162]”, the “IFN-α-inducing activity conferred” value was “highest IFN-α-inducing activity” and the “IFN-α induction (*100%) mean” value is reported as 1.28 *100%.

Regarding “aaggggggac acacacacac acacacacac (AAGGGGGGACACACACACACACACACACAC; RNA, 5' {ppp}, backbone not given here) [SEQ ID No. 149]”, the “IFN-α-inducing activity conferred” value is “highest IFN-α-inducing activity” and the “IFN-α induction (*100%) mean” value is 1.11 *100%.

For the substance “auauggggac acacacacac acacacacac (AUAUGGGGACACACACACACACACACACAC; RNA, 5' {ppp}, backbone not given here) [SEQ ID No. 129]”, the “IFN-α induction (*100%) mean” value is listed as 0.89 *100%.

For the substance “auuuggggac acacacacac acacacacac (AUUUGGGGACACACACACACACACACACAC; RNA, 5' {ppp}, backbone not given here) [SEQ ID No. 138]”, the “IFN-α induction (*100%) mean” value is on record as 0.99 *100%.

“auuaggggac acacacacac acacacacac (AUUAGGGGACACACACACACACACACACAC; RNA, 5' {ppp}, backbone not given here) [SEQ ID No. 171]”: the “IFN-α-inducing activity conferred” value is “highest IFN-α-inducing activity” and the “IFN-α induction (*100%) mean” value is 1.36 *100%.

In the case of “auccggggac acacacacac acacacacac (AUCCGGGGACACACACACACACACACACAC; RNA, 5' {ppp}, backbone not given here) [SEQ ID No. 141]”, the “IFN-α-inducing activity conferred” value was “highest IFN-α-inducing activity” and the “IFN-α induction (*100%) mean” value is 1.01 *100%.

On to “acgaggggac acacacacac acacacacac (ACGAGGGGACACACACACACACACACACAC; RNA, 5' {ppp}, backbone not given here) [SEQ ID No. 151]”, for which the “IFN-α-inducing activity conferred” value was “highest IFN-α-inducing activity” and the “IFN-α induction (*100%) mean” value is 1.14 *100%.

On to “aaugggggac acacacacac acacacacac (AAUGGGGGACACACACACACACACACACAC; RNA, 5' {ppp}, backbone not given here) [SEQ ID No. 136]”, for which the “IFN-α induction (*100%) mean” value is reported as 0.96 *100%.

With “auggggggac acacacacac acacacacac (AUGGGGGGACACACACACACACACACACAC; RNA, 5' {ppp}, backbone not given here) [SEQ ID No. 172]”, the “IFN-α-inducing activity conferred” value is given as “highest IFN-α-inducing activity” and the “IFN-α induction (*100%) mean” value is 1.38 *100%.

For the substance “agguggggac acacacacac acacacacac (AGGUGGGGACACACACACACACACACACAC; RNA, 5' {ppp}, backbone not given here) [SEQ ID No. 155]”, the “IFN-α-inducing activity conferred” value is reported as “highest IFN-α-inducing activity” and the “IFN-α induction (*100%) mean” value is given as 1.18 *100%.

“acugggggac acacacacac acacacacac (ACUGGGGGACACACACACACACACACACAC; RNA, 5' {ppp}, backbone not given here) [SEQ ID No. 152]”: the “IFN-α-inducing activity conferred” value was “highest IFN-α-inducing activity” and the “IFN-α induction (*100%) mean” value is on record as 1.14 *100%.

These data come from patent US9381208B2, “Structure and use of 5′ phosphate oligonucleotides” (Rheinische Friedrich-Wilhelms-Universität, priority 2006, dated 2016).
